Data from patent publication US20230338310A1, “ANTI-VIRAL THERAPY” (priority 2020, published 2023).
Values after ≈ are worked out from the molar mass of the structure shown. “Also recorded” adds a separate entry of the source.

Experiments:
IL-6 = IL-6 response of A549 airway epithelial cells infected with human coronavirus 229E (IL-6 Duoset immunoassay); format: cell-based; conditions: 10^3 dilution of stock HCoV 229E, single doses of 2 or 10 mg/L, 20 h at 37° C., one-way ANOVA and Tukey
hCoV 229E [1] = assay: qPCR of hCoV 229E M protein gene copies in supernatant of infected A549 lung epithelial cells; format: cell-based, human coronavirus 229E in human A549 cells; conditions: 1 or 2 mg/L daily until 5th day, virus dilutions 10^-3 to 10^-5
Description: The effect of treatment of coronavirus-infected pulmonary cells with cysteamine was studied using A549 (sample obtained from deposit, deposited under ATCC CCL-185) being a human lung epithelial cell line. Prior to viral challenge A549 cells were grown at 37° C. in 5% CO2 atmosphere in growth media F-12 with Kaighn's modification+10% FBS +pen-strep [F-12K]) to 70-80% confluency in F12-K in tissue-culture-treated 96-well plates. Immediately prior to viral challenge, cells were washed in Hanks balanced salt solution and media was replaced with 100 μl challenge medium per well (F-12K) which contained 1% serum. […] Quantitative (real-time) polymerase chain reaction (qPCR) was carried out using PrecisionPLUS qPCR Master Mix (PrimerDesign) and forward and reverse oligonucleotides (229E Sense & 229E Antisense) specific to the hCoV 229E M protein gene. Amplification was carried out using a MiniOpticon Real-Time PCR system (Bio-Rad) and data was analysed using Opticon Monitor software (Bio-Rad). Analysed samples had been exposed to 10^−3 (1.12×10^12 pfu/ml), 10^−4 (1.12×10^11 pfu/ml) and 10^−5 (1.12×10^10 pfu/ml) of hCoV 229E and conducted from quadruplicate technical replicates. The number of copies of the 229E M protein gene were determined from a standard curve containing known number of copies of the 229E M protein gene.

[2] = 14 days of cysteamine therapy adjunct to standard of care therapy; cited from earlier work
glycine decarboxylase = molecular target: T1, glycine decarboxylase (Homo sapiens, UniProt P23378); assay: Glycine utilisation by MRC-5 fibroblasts (fluorometric glycine assay of supernatants); format: cell-based; conditions: 10 mg/L cysteamine, 4 h, glycine 300 μM, insulin 10 mg/L
T1 construct: endogenous in cells; host or cells: MRC-5 airway fibroblast cells
T1 sequence (P23378 36-1020): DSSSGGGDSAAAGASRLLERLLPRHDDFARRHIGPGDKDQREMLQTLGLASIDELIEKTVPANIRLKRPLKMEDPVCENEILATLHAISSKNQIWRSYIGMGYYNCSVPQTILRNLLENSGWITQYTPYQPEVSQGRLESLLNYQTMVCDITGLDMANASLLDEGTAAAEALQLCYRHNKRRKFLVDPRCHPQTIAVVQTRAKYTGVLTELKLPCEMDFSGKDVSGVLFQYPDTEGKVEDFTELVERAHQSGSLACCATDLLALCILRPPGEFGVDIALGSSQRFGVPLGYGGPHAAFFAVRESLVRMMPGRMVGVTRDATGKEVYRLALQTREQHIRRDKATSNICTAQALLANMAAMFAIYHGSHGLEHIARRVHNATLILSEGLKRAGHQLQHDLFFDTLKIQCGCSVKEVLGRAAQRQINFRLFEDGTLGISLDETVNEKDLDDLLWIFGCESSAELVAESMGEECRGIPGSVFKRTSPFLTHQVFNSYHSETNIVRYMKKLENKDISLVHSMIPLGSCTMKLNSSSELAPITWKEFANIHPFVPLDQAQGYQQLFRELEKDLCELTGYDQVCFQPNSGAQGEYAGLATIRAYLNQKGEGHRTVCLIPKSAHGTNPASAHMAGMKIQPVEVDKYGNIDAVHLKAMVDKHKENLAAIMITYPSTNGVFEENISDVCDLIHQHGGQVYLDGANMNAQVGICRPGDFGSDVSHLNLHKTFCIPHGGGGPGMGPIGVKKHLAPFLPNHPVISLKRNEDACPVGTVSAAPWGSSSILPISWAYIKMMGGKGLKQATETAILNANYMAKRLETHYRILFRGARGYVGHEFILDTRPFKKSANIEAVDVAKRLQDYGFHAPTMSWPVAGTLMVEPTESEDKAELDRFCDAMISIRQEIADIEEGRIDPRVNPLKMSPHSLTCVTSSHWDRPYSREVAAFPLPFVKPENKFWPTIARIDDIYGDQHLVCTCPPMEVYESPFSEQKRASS
Description: MRC-5 airway fibroblast cells were grown to 90% confluence in 2×12-well plates in EMEM+10% FBS. Cell culture media was replaced with:
Plate 1 • 1. 3×1 ml media alone (EMEM+10% FBS) • 2. 3×1 ml media+insulin (10 mg/L) • 3. 3×1 ml media+added glycine (300 μM) • 4. 3×1 ml media+glycine+insulin
As above, but with the addition of cysteamine to a final concentration of 10 mg/L Cells were then incubated at 37° C. and 5% C02 for 4 h. After incubation cell supernatants were harvested and transferred to labelled cryotubes and stored at −80° C. prior to assessment of glycine content. Insulin strongly stimulates glycine utilisation via glycine decarboxylase.
The supernatants were thawed prior to determining the glycine concentration using the fluorometric glycine assay kit from Abcam (Ab211100).
Manufacturer's instructions were followed and fluorometric assessment of glycine concentration in supernatants and standards was performed on the Biotek Synergy plate reader using 96-well black-walled plates at 535/587 nm (ex/em).

hCoV 229E [3] = assay: Immunoperoxidase assay (TCID50/pfu) and microscopic examination of hCoV 229E-infected MRC-5 lung fibroblast cells; format: cell-based, human coronavirus 229E (ATCC VR/740) in human MRC-5 cells; conditions: MRC-5 cells
IFNβ = IFNβ response of A549 airway epithelial cells infected with human coronavirus 229E (IFN Beta Quantikine kit); format: cell-based; conditions: 10^3 dilution of stock HCoV 229E, single dose of 10 mg/L, 20 h at 37° C., none detected with virus alone
[4] = system: SARS-CoV-2 (SARS-CoV-2-CVR-Gla-1); assay: SARS-CoV-2 cytopathology (CPE) assay in Vero E6 MESO cells; format: cell-based
hCoV 229E [5] = assay: Immunoperoxidase assay (TCID50/pfu) and microscopic examination of hCoV 229E-infected A549 lung epithelial cells; format: cell-based, human coronavirus 229E (ATCC VR/740) in human A549 cells
[6] = 2 mg/L daily for 5 days, all virus concentrations of the study

## NCCS [cysteamine, 2-Aminoethanethiol]
IL-6
  IL-6 secretion compared with viral infection alone: significantly reduced IL-6 secretion
hCoV 229E [1]
  viral load as number of copies of the 229E M protein gene: reduces viral load
[2]
  CRP levels versus SOCT alone: significantly reduced
  WBC levels versus SOCT alone: significantly reduced
Glycine decarboxylase
  insulin-driven utilisation of exogenous glycine: blocked
hCoV 229E [3]; 2 mg/L
  viral load (pfu/ml) relative to control without cysteamine: can reduce viral load
hCoV 229E [3]; [6]
  protection against infection with hCoV 229E: confer protection against infection
hCoV 229E [3]; day 4, 2 mg/L cysteamine, untreated cells destroyed at 10^-4 to 10^-7 viral dilution
  cell monolayer integrity by microscopic examination: not seen at all in any of the cysteamine treated cells; also recorded: visible intact monolayer
IFNβ
  IFNβ response: IFNβ is detected
[4]; Severe acute respiratory syndrome coronavirus 2, Vero C1008, 72 h, read-out: IC50 (CPE induced by SARS-CoV-2)
  IC50: 21.4 µg/mL (≈ 277 µM)
[4]; Vero E6 MESO cells
  CPE (Cytopathology) induced by SARS-CoV-2: reduced the CPE
[4]; Vero E6 MESO cells, 128 mg/L, 72 hours post-infection and later
  protection of the cell monolayer from SARS-CoV-2 CPE: almost complete protection
[4]; Vero E6 MESO cells, therapeutically-achievable doses, 72 hours post-infection
  protection of the cell monolayer from SARS-CoV-2 CPE: modest
hCoV 229E [5]; 1 mg/L cysteamine once a day for 5 days (untreated control 2.21 × 10^14/ml)
  pfu/ml in wells infected with hCoV 229E: 3.94 × 10^15/ml pfu/ml
hCoV 229E [5]; 2 mg/L
  viral load (pfu/ml) relative to control without cysteamine: can reduce viral load
hCoV 229E [5]; 2 mg/L cysteamine once a day for 5 days (untreated control 2.21 × 10^14/ml)
  pfu/ml in wells infected with hCoV 229E: 7 × 10^9/ml pfu/ml
hCoV 229E [5]; [6]
  protection against infection with hCoV 229E: confer protection against infection
